According to article PMC2893881 (Bioorganic & medicinal chemistry, 2010):
Like-named read-outs stand apart in the source and are kept apart here.

Assays:
[1] = target: TbCatB (Trypanosoma brucei, UniProt Q6R7Z5); test: Cysteine protease inhibition assay, TbCatB; type: biochemical; settings: TbCatB 258 nM, Z-Phe-Arg-AMC 10 μM, pH 5.5
[2] = tested on: Jurkat cells (clone E6-1); test: Jurkat cell cytotoxicity assay; type: cell-based; settings: for Selectivity Index = (IC50 Jurkat) / (IC50 T. brucei): Jurkat vs T. brucei; for IC50: read-out: IC50 (μM) Jurkat
[3] = target: rhodesain (Trypanosoma brucei rhodesiense, UniProt Q95PM0); test: Cysteine protease inhibition assay, rhodesain; type: biochemical; settings: for IC50 (μM) Cysteine Protease rho (rhodesain): rhodesain 4 nM, Z-Phe-Arg-AMC 10 μM, pH 5.5
[4] = tested on: T. brucei brucei; test: Trypanosoma brucei brucei growth inhibition assay; type: cell-based; settings: bloodstream forms clone 427-221a, 40 hours, ATP-bioluminescence, ± standard deviation of the mean
[5] = tested on: animals; settings: cited from earlier work
[6] = tested on: patients; settings: clinical use, second stage sleeping sickness; cited from earlier work
[7] = tested on: human lung carcinoma (A549) cells; settings: at 1 μM; cited from earlier work
[8] = Jurkat cells, 40 hr, ATP-bioluminescence

Row | Compound | IC50 (μM) Jurkat [2, 8] | IC50 (μM) Cysteine Protease rho (rhodesain) [3] | Selectivity Index = (IC50 Jurkat) / (IC50 T. brucei) [2] | IC50 (μM) T. brucei [4] | other results
1 | CS[C@]1(CO)C(=O)N2[C@H]3C(=CC=C[C@@H]3O)C[C@@]2(SC)C(=O)N1C [Compound 3, bis(methylthio)gliotoxin] | not being toxic | inactivity | – | – | IC50 (μM) Cysteine Protease Tbc (TbcatB) [1]: inactivity
2 | CS[C@]1(CO)C(=O)N2c3c(O)cccc3C[C@@]2(SC)C(=O)N1C [Compound 4, dehydrobis(methylthio)gliotoxin] | – | binds to rhodesain | > 15 | trypanocidal in the low micromolar range | –
3 | CS[C@]1(CO)C(=O)N2[C@H]3C(=CC=C[C@@H]3OC(C)=O)C[C@@]2(SC)C(=O)N1C [Compound 7, 6-acetylbis(methylthio)gliotoxin] | – | binds to rhodesain | > 15 | trypanocidal in the low micromolar range | –
4 | CS[C@]1(Cc2c[nH]c3ccccc23)NC(=O)[C@](CO)(SC)N(C)C1=O [Compound 8, chetoseminudin B] | – | inactivity | – | – | IC50 (μM) Cysteine Protease Tbc (TbcatB) [1]: inactivity
5 | CN1C(=O)[C@]23CC4=CC=C[C@H](O)[C@H]4N2C(=O)[C@@]1(CO)SS3 [Compound 10, gliotoxin, reference compound] | substantial toxicity to mammalian cells | – | low ^g (Toxic to Jurkat cells at <1 μM) | nanomolar activity | IC50 (μM) Cysteine Protease Tbc (TbcatB) [1]: showed inhibition of TbCatB
6 | CN1C(=O)[C@]23SS[C@@]1(C)C(=O)N2[C@H]1Nc2ccccc2[C@@]1([C@@]12c4ccccc4N[C@@H]1N1C(=O)[C@]4(CO)SS[C@]1(C(=O)N4C)[C@H]2O)[C@@H]3O [Compound 11, verticillin B] | substantial toxicity to mammalian cells | – | low (Toxic to Jurkat cells at <1 μM) | nanomolar activity | –
7 | CN1C(=O)[C@@]23C[C@]4([C@]56C[C@@]78SS[C@@](CO)(C(=O)N7[C@H]5Nc5ccccc56)N(C)C8=O)c5ccccc5N[C@@H]4N2C(=O)[C@]1(CO)SS3 [Compound 12, chaetocin] | substantial toxicity to mammalian cells | – | low (Toxic to Jurkat cells at <1 μM) | nanomolar activity | –
8 | COc1ccc2c3c4n(c2c1)[C@H](C=C(C)C)OOC(C)(C)C[C@@H]4N1C(=O)[C@@H]2CCCN2C(=O)[C@]1(O)[C@H]3O [Compound 17, verruculogen] | – | – | – | – | tremors in animals [5]: cause tremors in animals
9 | COc1ccc2c3c([nH]c2c1)C(C=C(C)C)N1C(=O)C2CCCN2C(=O)C1(O)C3O (stereo not drawn) [Compound 20, 12,13-dihydroxyfumitremorgin C] | – | binds to rhodesain | > 15 | trypanocidal in the low micromolar range | IC50 ([2]; Homo sapiens, Jurkat, 40 h): 97.2 µM; IC50 [3]: 10.9 µM
10 | Nc1nc(N)nc(Nc2ccc([As]3SCC(CO)S3)cc2)n1 (stereo not drawn) [Compound 25, melarsoprol] | – | – | – | – | mortality rate [6]: approximately 5%
11 | fumitremorgin B [Compound 19] | – | – | 5.3 | – | tremors in animals [5]: cause tremors in animals; IC50 [2, 8]: 104 µM; IC50 ([4]; read-out: IC50 (μM) T. brucei): 19.5 ± 5.9 µM
12 | phenylahistin [Compound 2a] | – | – | – | – | cell cycle inhibition activity [7]: cell cycle inhibition activity in the G2/M phase
